In ChEMBL document CHEMBL1821724, “Synthesis and in vitro evaluation of derivatives of the β₁-adrenergic receptor antagonist HX-CH 44” (Bioorg Med Chem Lett, 2011):

What was measured:
[1] = biological target: Beta-2 adrenergic receptor (Homo sapiens, UniProt P07550); experiment: Displacement of [125I]-Iodopindolol from beta2-adrenergic receptor after 1.5 hrs by liquid scintillation counting
[2] = biological target: T1, 5-hydroxytryptamine receptor 1A (Homo sapiens, UniProt P08908); experiment: Displacement of [3H]-8-OH-DPAT from 5HT1A receptor after 1.5 hrs by liquid scintillation counting
T1 sequence (P08908 whole entry): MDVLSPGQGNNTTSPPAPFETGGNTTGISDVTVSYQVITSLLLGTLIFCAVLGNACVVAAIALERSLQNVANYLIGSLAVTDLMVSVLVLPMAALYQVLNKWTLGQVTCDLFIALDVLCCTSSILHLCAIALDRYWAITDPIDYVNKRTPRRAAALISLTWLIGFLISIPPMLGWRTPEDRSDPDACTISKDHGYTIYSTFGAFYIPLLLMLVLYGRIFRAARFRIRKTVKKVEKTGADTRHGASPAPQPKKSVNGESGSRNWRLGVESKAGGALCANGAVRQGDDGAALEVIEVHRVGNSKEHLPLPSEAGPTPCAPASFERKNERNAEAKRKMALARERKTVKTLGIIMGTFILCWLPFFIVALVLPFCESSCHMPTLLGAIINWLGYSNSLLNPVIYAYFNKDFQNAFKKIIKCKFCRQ

[3] = biological target: Beta-1 adrenergic receptor (Homo sapiens, UniProt P08588); experiment: Displacement of [125I]-Iodopindolol from beta1-adrenergic receptor after 1.5 hrs by liquid scintillation counting
Beta-1 adrenergic receptor (Homo sapiens, UniProt P08588), sequence (P08588 whole entry): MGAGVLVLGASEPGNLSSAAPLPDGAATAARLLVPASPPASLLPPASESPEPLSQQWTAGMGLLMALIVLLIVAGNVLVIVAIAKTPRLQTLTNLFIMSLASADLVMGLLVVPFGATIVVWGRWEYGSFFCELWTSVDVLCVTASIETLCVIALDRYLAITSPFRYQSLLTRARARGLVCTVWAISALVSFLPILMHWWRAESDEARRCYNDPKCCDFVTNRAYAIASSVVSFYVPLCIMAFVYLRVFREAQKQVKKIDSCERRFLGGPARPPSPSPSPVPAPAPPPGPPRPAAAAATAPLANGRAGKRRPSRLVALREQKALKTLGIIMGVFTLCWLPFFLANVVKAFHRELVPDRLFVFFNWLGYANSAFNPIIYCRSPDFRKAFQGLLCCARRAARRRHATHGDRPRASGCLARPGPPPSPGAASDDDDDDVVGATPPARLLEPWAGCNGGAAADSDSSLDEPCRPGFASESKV

[4] = biological target: Beta-1 adrenergic receptor (Rattus norvegicus, UniProt P18090); experiment: Displacement of [3H]-CGP12177 from beta1-adrenergic receptor in rat heart membranes; type: cell membranes, Membrane
Beta-1 adrenergic receptor (Rattus norvegicus, UniProt P18090), sequence (P18090 whole entry): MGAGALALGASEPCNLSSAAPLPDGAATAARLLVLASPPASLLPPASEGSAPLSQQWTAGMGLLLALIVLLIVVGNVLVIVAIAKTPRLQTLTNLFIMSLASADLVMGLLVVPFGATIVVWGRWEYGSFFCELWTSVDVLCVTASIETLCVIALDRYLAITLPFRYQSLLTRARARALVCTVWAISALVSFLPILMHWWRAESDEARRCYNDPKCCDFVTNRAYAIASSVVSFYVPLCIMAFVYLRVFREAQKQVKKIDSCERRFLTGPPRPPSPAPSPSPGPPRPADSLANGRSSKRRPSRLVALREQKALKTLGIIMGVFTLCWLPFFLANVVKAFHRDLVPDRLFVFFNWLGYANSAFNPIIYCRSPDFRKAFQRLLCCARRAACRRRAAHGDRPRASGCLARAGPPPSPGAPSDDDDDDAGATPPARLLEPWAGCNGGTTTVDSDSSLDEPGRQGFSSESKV

Beta-2 adrenergic receptor, sequence (P07550 whole entry): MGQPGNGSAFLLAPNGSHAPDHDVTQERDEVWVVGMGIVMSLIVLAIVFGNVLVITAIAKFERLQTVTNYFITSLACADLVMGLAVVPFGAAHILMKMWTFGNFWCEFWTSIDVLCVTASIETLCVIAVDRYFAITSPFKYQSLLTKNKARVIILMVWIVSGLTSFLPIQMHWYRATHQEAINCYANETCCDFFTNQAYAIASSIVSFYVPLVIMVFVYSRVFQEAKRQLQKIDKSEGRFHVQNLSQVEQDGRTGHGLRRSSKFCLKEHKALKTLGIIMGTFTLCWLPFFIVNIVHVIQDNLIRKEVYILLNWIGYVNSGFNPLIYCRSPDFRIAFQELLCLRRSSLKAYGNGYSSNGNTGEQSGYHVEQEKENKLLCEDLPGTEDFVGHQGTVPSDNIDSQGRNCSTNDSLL

| Structure (SMILES) | Ki [1] | Ki [2] | Ki [3] | Ki [4] |
| --- | --- | --- | --- | --- |
| COc1ccc2nc(-c3ccc(OC[C@@H](O)CNC(C)CF)cc3)n(C)c(=O)c2c1 (stereo not given in full) | > 10 µM | > 10 µM | 3 µM |  |
| COc1ccc2nc(-c3ccc(OCC(O)CNC(C)C)cc3)n(C)c(=O)c2c1 (racemic) | 7.7 µM | 5.5 µM | 2.4 µM |  |
| COc1ccc2nc(-c3ccc(OCC(O)CNC(C)(C)C)cc3)n([11CH3])c(=O)c2c1 (racemic) |  |  |  | 0.077 µM |
| COc1ccc2nc(-c3ccc(OCC(O)CNC(C)CF)cc3)n(C)c(=O)c2c1 (mixture of isomers) | > 10 µM | > 10 µM | 2.3 µM |  |
